biological target: T1, TBK1 (Homo sapiens, UniProt Q9UHD2); experiment: TBK1 protein kinase assay ([γ-33P]ATP, P81 filterplates); type: biochemical; settings: 50 μM ATP; read-out: Potency (TBK1 IC50 potency score)
T1 construct: All protein kinases were of human origin and encoded full length proteins, unless indicated otherwise; His6; made in house; host or cells: insect Sf21 cells
T1 sequence (Q9UHD2 1-729): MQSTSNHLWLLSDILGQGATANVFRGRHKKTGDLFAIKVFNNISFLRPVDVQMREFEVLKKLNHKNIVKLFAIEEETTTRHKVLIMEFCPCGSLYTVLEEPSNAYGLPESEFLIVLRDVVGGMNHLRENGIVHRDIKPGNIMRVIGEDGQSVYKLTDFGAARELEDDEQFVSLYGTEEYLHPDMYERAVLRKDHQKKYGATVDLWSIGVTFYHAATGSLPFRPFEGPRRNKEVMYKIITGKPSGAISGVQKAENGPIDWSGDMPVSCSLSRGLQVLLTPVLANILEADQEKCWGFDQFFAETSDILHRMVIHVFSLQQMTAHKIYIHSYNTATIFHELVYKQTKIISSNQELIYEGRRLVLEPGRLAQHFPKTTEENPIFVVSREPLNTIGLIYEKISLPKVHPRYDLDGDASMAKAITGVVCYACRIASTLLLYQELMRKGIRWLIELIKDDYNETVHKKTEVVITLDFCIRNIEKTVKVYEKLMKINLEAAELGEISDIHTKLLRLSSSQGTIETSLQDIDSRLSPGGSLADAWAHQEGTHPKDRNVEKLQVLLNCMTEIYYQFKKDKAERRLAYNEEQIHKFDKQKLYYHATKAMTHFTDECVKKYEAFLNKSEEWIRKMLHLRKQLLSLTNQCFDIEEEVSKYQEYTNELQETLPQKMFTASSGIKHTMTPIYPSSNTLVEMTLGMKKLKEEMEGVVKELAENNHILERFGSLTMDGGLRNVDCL
Procedure, shortened: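 Human TBK1 assayed for 30 min with peptide substrate (300 μM), 50 μM [γ-33P]ATP and 10 mM magnesium acetate in 50 mM Tris/HCl pH 7.5, 0.1 mM EGTA, 0.1% 2-mercaptoethanol. Stopped with orthophosphoric acid and counted on P81 filters. IC50 from 10 compound concentrations.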

Row | SMILES | IC50
1 | CC(C)N1CCC(n2cc(Nc3ncc(C4CC4)c(NCCCNC(=O)C4CCC4)n3)cn2)CC1 [Example 203, Cyclobutanecarboxylic acid (3-{5-cyclopropyl-2-[1-(1-isopropyl-piperidin-4-yl)-1H-pyrazol-4-ylamino]-pyrimidin-4-ylamino}-propyl)-amide] | < 0.1 µM
2 | CNc1ccc(Nc2ncc(C3CC3)c(NCCCNC(=O)C3CCC3)n2)cn1 [Example 204, Cyclobutanecarboxylic acid {3-[5-cyclopropyl-2-(6-methylamino-pyridin-3-ylamino)-pyrimidin-4-ylamino]-propyl}-amide] | < 0.1 µM
3 | CC(C)(C)N1CCC(n2cc(Nc3ncc(C4CC4)c(NCCCNC(=O)C4CCC4)n3)cn2)CC1 [Example 205, Cyclobutanecarboxylic acid (3-{2-[1-(1-tert-butyl-piperidin-4-yl)-1H-pyrazol-4-ylamino]-5-cyclopropyl-pyrimidin-4-ylamino}-propyl)-amide] | < 0.1 µM
4 | O=C(NCCCNc1nc(Nc2ccc(N3CCN(C4CC4)CC3)nc2)ncc1C1CC1)C1CCC1 [Example 206, Cyclobutanecarboxylic acid (3-{5-cyclopropyl-2-[6-(4-cyclopropyl-piperazin-1-yl)-pyridin-3-ylamino]-pyrimidin-4-ylamino}-propyl)-amide] | < 0.1 µM
5 | O=C(NCCCNc1nc(Nc2ccc(NC3CCOCC3)nc2)ncc1C1CC1)C1CCC1 [Example 207, Cyclobutanecarboxylic acid (3-{5-cyclopropyl-2-[6-(tetrahydro-pyran-4-ylamino)-pyridin-3-ylamino]-pyrimidin-4-ylamino}-propyl)-amide] | < 0.1 µM
6 | O=C(NCCCNc1nc(Nc2ccc(C3CC3)nc2)ncc1C1CC1)C1CCC1 [Example 208, Cyclobutanecarboxylic acid {3-[5-cyclopropyl-2-(6-cyclopropyl-pyridin-3-ylamino)-pyrimidin-4-ylamino]-propyl}-amide] | < 0.1 µM
7 | Cc1nc2ccc(Nc3ncc(C4CC4)c(NCCCNC(=O)C4CCC4)n3)cc2[nH]1 [Example 209, Cyclobutanecarboxylicacid{3-[5-cyclopropyl-2-(2-methyl-3H-benzimidazol-5-ylamino)-pyrimidin-4-ylamino]-propyl}-amide] | < 0.1 µM
8 | O=C(NCCCNc1nc(Nc2ccc3c(cnn3C3CC3)c2)ncc1C1CC1)C1CCC1 [Example 210, Cyclobutanecarboxylicacid{3-[5-cyclopropyl-2-(1-cyclopropyl-1H-indazol-5-ylamino)-pyrimidin-4-ylamino]-propyl}-amide] | < 0.1 µM
9 | O=C(NCCCNc1nc(Nc2ccc3cnn(C4CC4)c3c2)ncc1C1CC1)C1CCC1 [Example 211, Cyclobutanecarboxylicacid{3-[5-cyclopropyl-2-(1-cyclopropyl-1H-indazol-6-ylamino)-pyrimidin-4-ylamino]-propyl}-amide] | < 0.1 µM
10 | O=C(NCCCNc1nc(Nc2ccc3c(cnn3CC3CC3)c2)ncc1C1CC1)C1CCC1 [Example 212, Cyclobutanecarboxylicacid{3-[5-cyclopropyl-2-(1-cyclopropylmethyl-1H-indazol-5-ylamino)-pyrimidin-4-ylamino]-propyl}-amide] | < 0.1 µM
11 | O=C(NCCCNc1nc(Nc2ccc3nn(CC4CC4)cc3c2)ncc1C1CC1)C1CCC1 [Example 213, Cyclobutanecarboxylicacid{3-[5-cyclopropyl-2-(2-cyclopropylmethyl-2H-indazol-5-ylamino)-pyrimidin-4-ylamino]-propyl}-amide] | < 0.1 µM
12 | O=C(NCCCNc1nc(Nc2ccc3[nH]nnc3c2)ncc1C1CC1)C1CCC1 [Example 214, Cyclobutanecarboxylicacid{3-[2-(1H-benzotriazol-5-ylamino)-5-cyclopropyl-pyrimidin-4-ylamino]-propyl}-amide] | < 0.1 µM

— patent publication US20100056524A1, “Compound” (priority 2008, published 2010)
